Laboratory results: US20240352415A1, “METHODS FOR THE GENERATION OF HUMAN RETINAL GANGLION CELLS AND COMPOSITIONS, ASSAYS, DEVICES, AND KITS COMPRISING SAME” (priority 2021, published 2024)
“Also recorded” adds a separate entry of the source.

Experiments:
[1] = system: CONCEPT telencephalon-eye organoids; assay: Inhibition of FGF signaling in CONCEPT telencephalon-eye organoids with FGFR and MEK inhibitors (immunostaining readout); assay type: cell-based, human; settings: inhibitor in culture medium starting on day 15, harvested day 24; PD 161570 1 μM, PD 0325901 2 μM; DMSO control
Procedure: CONCEPT telencephalon-eye organoids were generated as follows. A humidified incubator at 37° C. with 5% C02 was used for cell culture. H1 hESCs or iPSCs that were passaged using ReLeSR two or three days before experiments were detached using Dispase (GIBCO 17105041) and then harvested by centrifugation. After that, the cell pellets were suspended in ice-cold Matrigel. After gelling at 37° C. for 15-20 minutes, the hESC/Matrigel clump was gently dispersed in a N2B27 Medium (DMEM/F12+GlutaMAX (GIBCO):Neurobasal medium (GIBCO)=1:1, 0.5×B27 supplement (GIBCO), 0.5×N2 supplement (GIBCO), 0.1 mM β-mercaptoethanol, and 0.2 mM L-GlutaMax) for floating culture. With the starting day of cell differentiation designated as day 0, cysts with a single lumen formed on day 1. On days 3-5, individual cysts were manually picked using a curved Pasteur pipets under an inverted microscope and then seeded onto Matrigel-coated 24-well plates at a density of 2-6 cysts per well. Cysts spontaneously attached to the culture surface and grew. […] Culture mediums were changed every two or three days. To inactivate FGF signaling in CONCEPT organoids, FGFR1/2/3 inhibitor PD 161570 (1 μM; Tocris) and MEK1/2 inhibitor PD 0325901 (2 μM; Tocris) were supplemented to the culture medium staring on day 15. DMSO was used as a control. Treated CONCEPT organoids were harvested on day 24. CONCEPT telencephalon-eye organoids were fixed in 4% PFA for 15-30 minutes at room temperature and processed for immunostaining. These primary antibodies were used: […] Primary antibodies were visualized using Alexa Fluor 488-, 568-, and 647-conjugated secondary antibodies and imaged using a Zeiss AxioObserver Z1 microscope. […] In dual-color immunohistochemistry for PAX2 and FGF8, FGF8 was visualized using AP-conjugated anti mouse secondary antibody (Invitrogen A16038), and PAX2 was detected by biotin-conjugated anti rabbit secondary antibody (Invitrogen B2770) followed by […]-conjugated streptavidin (ThermoScientific 21130).

[2] = system: voltage-gated potassium channels
[3] = system: voltage-gated sodium channels; assay type: cell-based, human

| Structure (SMILES) | RGC somas and directional axon growth marked by CNTN2 expression [1] | optic disc cells marked by moderate-level PAX2 expression at the outer regions [1] | optic stalk cells marked by high-level PAX2 expression at the inner zone [1] | retinal (neuroretinal) progenitors marked by VSX2 expression [1] | effect on amplitude of outward currents [2] | mean IK±SD at 60 mV (outward potassium current amplitude) [2] | effect on inward currents [3] | mean INa+SD at −10 mV (inward sodium current amplitude) [3] |
| --- | --- | --- | --- | --- | --- | --- | --- | --- |
| CCN(CC)CCCCNc1ncc2cc(-c3c(Cl)cccc3Cl)c(NC(=O)NC(C)(C)C)nc2n1 [PD 161570] | drastically reduced or nearly absent | severely reduced | reduced | reduced |  |  |  |  |
| O=C(NOC[C@H](O)CO)c1ccc(F)c(F)c1Nc1ccc(I)cc1F [PD 0325901] | substantially reduced or nearly absent; also recorded: drastically reduced | nearly absent | largely remained | largely remained |  |  |  |  |
| CC[N+](CC)(CC)CC.[Cl-] [TEA, Tetraethylammonium-chloride] |  |  |  |  | significantly reduced | 279±201 pA |  |  |
| NC1=N[C@H](O)[C@H]2[C@H]3O[C@]4(O)O[C@@H]([C@@H](O)[C@@]2(N1)[C@@H]4O)[C@]3(O)CO [TTX, Tetrodotoxin-citrate] |  |  |  |  |  |  | abolished all inward currents | −18.3±13 pA |
